Reference: patent US20230407245A1, “Media and methods for establishing and maintaining early embryo-like cells” (BGI SHENZHEN GROUP HOLDINGS CO., LIMITED, priority 2020, published 2023)

System: primed human PSCs
Test: Conversion of primed human PSCs to ICLCs, RT-qPCR of preimplantation ICM markers
Assay type: cell-based
Settings: for expression of preimplantation ICM markers (RT-qPCR) in ICLCs with a different dosage of one component, compared to primed human PSCs: H9, 4CL medium 1 with PD0325901 0.5 μM, TSA 20 nM, DZNep 5, 20 or 50 nM
Method: All provided human PSCs were routinely maintained on Matrigel™ or Geltrex™ coated plates in mTeSR1 or E8 medium. Generally, cells were passaged every 4 to 5 days with 0.5 mM EDTA. For passaging, cells were washed with PBS once and treated with 0.5 mM EDTA for 5 mins. Then, EDTA was removed and cells were detached as small clumps using a Pasteur pipette with mTeSR1 or E8 medium. Primed human PSCs were grown in an incubator under normoxic conditions (37° C., 5% CO2).
One day before initiation of conversion, primed human PSCs were washed with PBS once and dissociated into single cells and plated at a density of 1,000 to 1,500 cells/cm 2 on feeder in mTeSR1 or E8 medium supplemented with 10 μM Y27632. Twenty-four hours later, culture medium was switched to 4CL medium 1. The culture medium was refreshed with the same medium every 24 hours. Colonies became round and domed-shape in 24 to 48 hours. Cells were passaged every 3 to 4 days. For passaging, cells were dissociated into single cells using TrypLE: 0.5 mM EDTA (1:1) and plated at a density of 1,000 to 1,500 cells/cm 2 on feeder (feeders were seeded on Geltrex™/Matrigel™ pre-treated plate) (FIG. 1). The ICLCs induction and maintenance can be conducted under hypoxic condition (37° C., 5% CO2, 5% O2), or normoxic condition (37° C., 5% CO2, 21% O2) (FIG. 34), preferably hypoxia condition.
Using the same procedures of example 1, except plating cells on 1% (v/v) Geltrex™ in DMEM-F12 (cat #) coated plates instead of on feeder cells.
Primed human PSCs were cultured following the same procedures of example 1. One day before initiation of the conversion, primed human PSCs were dissociated into single cells and plated 60,000 cells/well in Aggrewell™ 800 plates using mTeSR1 or E8 medium supplemented with 10 μM Y27632. Twenty-four hours later, culture medium was changed into 4CL medium 1, culture condition was then switched to hypoxic condition. Cells formed small spheres in 3 days. The spheres were then lifted and transferred to flasks (Greiner Bio-One, 658190) for suspension culture. Medium was refreshed daily. Cells were passaged every 4 to 5 days. For passaging, cells were dissociated into single cells using TrypLE: 0.5 mM EDTA (1:1), then cells were resuspended in 4CL medium 1 at a density of 150,000 cells/ml. The resuspended cells were added into flasks (Greiner Bio-One, 658190) for suspension culture. Cells formed small aggregates in 24 hours. Generally, cells were converted to ICLCs in approximately 3 weeks after initiation.
Same as example 1, but different dosages of either PD0325901, DZNep, or TSA were also used: PD0325901, 0.5 μM; TSA, 20 nM; DZNep, 5 nM, 20 nM or 50 nM.

SMILES | expression of preimplantation ICM markers (RT-qPCR) in ICLCs with a different dosage of one component, compared to primed human PSCs | expression levels of ICM specific genes such as DNMT3L, STELLA, DPPA5, KLF17 (final concentration of 40 to 70 ng/mL)
CC(/C=C/C(=O)NO)=C\[C@@H](C)C(=O)c1ccc(N(C)C)cc1 [TSA, trichostatin A] | significantly induced | –
O=C1O[C@H]([C@@H](O)CO)C(O)=C1O [L-ascorbic acid] | – | potently increases
Nc1nccc2c1ncn2[C@@H]1C=C(CO)[C@@H](O)[C@H]1O [DZNep, 3-deazaneplanocin A] | significantly induced | –
O=C(NOC[C@H](O)CO)c1ccc(F)c(F)c1Nc1ccc(I)cc1F [PD0325901] | significantly induced | –
